Here are results for 8 molecules from paper PMC3403872, “Contrasting effects of linaclotide and lubiprostone on restitution of epithelial cell barrier properties and cellular homeostasis after exposure to cell stressors” (BMC Pharmacology, 2012).

For assay [1], the system named is T84 cells.
The subject of assay [2] is T84 cells. Type of assay: cell-based.
The test system of assay [3] is pig jejunum. As to the kind of experiment: TER of pig jejunal mucosa in Ussing chambers. The arrangement: species or system Yorkshire crossbred pigs.
Assay [4] relates to pig jejunum. Description: mucosal-to-serosal 3H-mannitol flux in pig jejunal mucosa. On the set-up: species or system Yorkshire crossbred pigs. Conditions: n = 3.
Another assay deals with occludin. Description: Western analysis of occludin in sucrose density gradient membrane fractions. Conditions: ischemic pig jejunum, n = 3 experiments. The arrangement: species or system Yorkshire crossbred pigs.
The test system of assay [5] is pig jejunum. As to the kind of experiment: short-circuit current (Cl− secretion) of pig jejunal mucosa in Ussing chambers. On the set-up: species or system Yorkshire crossbred pigs. Conditions: 1 μM, n = 4.
The subject of assay [6] is T84 cells. As to the kind of experiment: FITC-LPS flux across T84 cells. Type of assay: cell-based. Conditions: IFN-γ 100 ng/ml.
Assay [7] concerns T84 cells. Type of assay: cell-based. This is another data set of the same source.
For assay [8], the system named is T84 cells. Description: mitochondrial membrane potential of T84 cells (JC-1). Type of assay: cell-based.
Assay [9] relates to T84 cells. Description: plasma membrane potential of T84 cells (DiBAC4(3)). Type of assay: cell-based. Conditions: different concentrations, p wrt 1 nM drug, n = 5.
Assay [10] concerns T84 cells. As to the kind of experiment: 3,000 Da FITC-dextran flux across T84 cells. Type of assay: cell-based. Conditions: 200 nM active linaclotide, 200 nM guanylin, 100 nM lubiprostone, 3 days, then dextran 24 h, n = 3.
Assay [11] concerns T84 cells. As to the kind of experiment: 70,000 Da rhodamine-dextran flux across T84 cells. Conditions: 200 nM active linaclotide, 200 nM guanylin, 100 nM lubiprostone, 3 days, then dextran 24 h, n = 3. Type of assay: cell-based.
The subject of the next assay is ClC-2 Cl- channels. On the set-up: method as in PMID 15213059, PMID 18511742. Conditions: apical membrane of epithelial cells; ref [17],[18]; cited from earlier work.
In assay [12] the test system is patients with IBS-C and CIC. Conditions: human, in vivo; cited from earlier work.
On the set-up of assay [13]: method as in PMID 16603730. Conditions: ref [19],[20]; cited from earlier work.
The next assay deals with patients with IBS-C. Conditions: ref [21]; cited from earlier work.
The next assay concerns porcine intestine. On the set-up: method as in PMID 17053162, PMID 18976652, PMID 18932279. Conditions: porcine intestine models; ref [22]-[24]; cited from earlier work.
For assay [14], the system named is guanylate cyclase-C (GC-C). Conditions: cited from earlier work.
Another assay relates to K+ channels. Conditions: cited from earlier work.
The test system of the next assay is rodent animal models. Conditions: in vivo; cited from earlier work.

Where no end group is shown, it is not given here.

Turning to `Nc1nc2c(nc(Br)n2[C@@H]2O[C@@H]3COP(=O)(O)O[C@H]3[C@H]2O)c(=O)[nH]1` [8BrcGMP, 8-bromo cGMP], in the assay on T84 cells [1], the “effect on T84 TER, no stressor” value is “reduced T84 epithelial cell TER significantly” and the “effects against IFN-γ” value is reported as “effects similar to active linaclotide”.
As for `CCCCC[C@H](O)/C=C/[C@H]1[C@H](O)CC(=O)[C@@H]1CCCCCCC(=O)O` [PGE1, Prostaglandin E1], in the assay with T84 cells [2], the “effect on [Ca2+]i” value is reported as “significantly increased”.
`CCCCC(F)(F)[C@@]1(O)CC[C@H]2[C@@H](CC(=O)[C@@H]2CCCCCCC(=O)O)O1` [lubiprostone]: the “ΔTER, control intestine” value in the assay on pig jejunum [3] (control pig jejunum, 1000 nM (1 μM), control ΔTER 2.1±1.8, n = 5, p < 0.01, mean ± S.E.) came to 26.3 ± 6.2 % mean basal. Moreover, the “effect on TER after ischemia” value in the assay with pig jejunum [3] (ischemic pig jejunum (45 min ischemia), n = 5) is “large, significant increase in TER”. The “effect on 3H-mannitol flux, control intestine” value with pig jejunum [4] (control pig jejunum, 60 min flux period) was “neither compound had any effect”. Moreover, the “effect on 3H-mannitol flux after ischemia” value in the assay with pig jejunum [4] (ischemic pig jejunum (45 min ischemia)) was “decrease in ^3H-mannitol fluxes”. In addition, the “effect on occludin after ischemia” value in the assay on occludin is on record as “major return of occludin to detergent-insoluble fractions”. In addition, in the assay on pig jejunum [5], the “effect on Isc, control intestine” value was “significant and similar increases in Isc”. Further, the “IFN-γ-counteracting effect on FITC-LPS flux” value in the assay with T84 cells [6] (200 nM active linaclotide or 100 nM lubiprostone, 3 days, then LPS 24 h, n = 3) was about 89%. Further, the “IFN-γ-counteracting effect on occludin/actin ratio” value with T84 cells [7] is about 43.8%. Besides, in the assay with T84 cells [8] (200 nM active linaclotide, 100 nM lubiprostone, 3 days), the “effect on mitochondrial membrane potential, no stressor” value is recorded as “no effect on the mitochondrial membrane potential”. Moreover, in the assay on T84 cells [8] (IFN-γ 100 ng/ml, 200 nM active linaclotide or 100 nM lubiprostone, 3 days, n = 8), the “IFN-γ-counteracting effect on mitochondrial membrane potential” value is about 77.8%. Further, the “effect on plasma membrane potential” value in the assay on T84 cells [9] is recorded as “significantly hyperpolarized”. For the same molecule, the “effect on mucosal to serosal 3,000 Da FITC-dextran flux” value in the assay with T84 cells [10] was “decreases of these fluxes”. Besides, the “effect on mucosal to serosal 70,000 Da rhodamine-dextran flux” value in the assay with T84 cells [11] is reported as “decreases of these fluxes”. Also, the “effect on T84 TER, no stressor” value with T84 cells [1] is “slight increase in TER”. In the assay on T84 cells [1] (T84 cells, no stressor, barrier function and mitochondrial membrane potential parameters together), the “effect of compound alone on measured T84 parameters” value is “no negative effects on the measured parameters”. The “IFN-γ-counteracting effect on TER” value in the assay on T84 cells [1] (T84 cells, IFN-γ 100 ng/ml, 200 nM active linaclotide or 100 nM lubiprostone, n = 3, Δlin vs Δlubi p < 0.0005) is “ca. 27.3%”. Further, the “effect on TNF-α-induced TER change” value with T84 cells [1] (T84 cells, TNF-α 50 ng/ml, 200 nM active linaclotide or 100 nM lubiprostone) is listed as “partially protected/repaired barrier function”. For the same molecule, in the assay with ClC-2 Cl- channels, the ClC-2 activation entry is “activates ClC-2 Cl^- channels”. Also, in [12], the “clinical effect on abdominal discomfort and pain” value was “ameliorates abdominal discomfort and pain”; the “clinical efficacy of lubiprostone (symptoms)” value is “significantly improving symptoms associated with CIC and IBS-C”. Besides, in assay [13], the “intestinal secretion and bowel movements” value is “increasing intestinal salt and water secretion, promoting bowel movements”. Further, the “effect on visceral pain thresholds” value in the assay with patients with IBS-C was “without influencing visceral pain thresholds”. Moreover, the “barrier repair after ischemia” value in the assay with porcine intestine is “promotes repair of barrier properties which are disrupted by ischemia”.
Regarding `CCC(=O)C(CC(C)N(C)C)(c1ccccc1)c1ccccc1` (stereo not shown) [methadone], in the assay with T84 cells [1], the “effect of methadone on linaclotide's effect on TER after TNF-α” value was “no effect” and the “effect of methadone on lubiprostone's protection/repair of TER after TNF-α” value is on record as “inhibited completely”.
Turning to “guanylin: well established GC-C activator, Sigma-Aldrich (PGTCEICAYAACTGC; ends and bridges not checked; cysteine pairing not given here; UniProt Q02747 101-115, looked up)”, in the assay on T84 cells [10], the “effect on mucosal to serosal 3,000 Da FITC-dextran flux” value was “increased mucosal to serosal fluxes”. Moreover, in the assay on T84 cells [11], the “effect on mucosal to serosal 70,000 Da rhodamine-dextran flux” value is reported as “increased mucosal to serosal fluxes”. Moreover, in the assay on T84 cells [1], the “effect on T84 TER, no stressor” value is recorded as “reduced T84 epithelial cell TER significantly” and the “effects against IFN-γ” value is recorded as “effects similar to active linaclotide”. In addition, the GC-C activation result in assay [14] was “activates guanylate cyclase-C (GC-C) leading to increased [cGMP]i”. Moreover, the “K+ channel activation” value in the assay on K+ channels is “activate K^+ channels”.
As to linaclotide, in [14], the GC-C activation entry was “activates guanylate cyclase-C (GC-C) leading to increased [cGMP]i”. Moreover, in the assay with rodent animal models, the “intestinal fluid secretion, transit and pain” value was “stimulated intestinal fluid secretion and transit time and reduced pain”. The “clinical efficacy of linaclotide” value in [12] was “improve bowel symptoms, transit time and abdominal discomfort or pain”.
Consider “uroguanylin: activates guanylate cyclase-C (NDDCELCVNVACTGCL; ends and bridges not checked; cysteine pairing not given here; UniProt Q16661 97-112, looked up)”, for which the GC-C activation result in assay [14] is “activates guanylate cyclase-C (GC-C) leading to increased [cGMP]i”. Further, in the assay with K+ channels, the “K+ channel activation” value is “activate K^+ channels”.

B1: Interferon-γ (protein, UniProt P01579 24-161, looked up)
Interferon gamma: QDPYVKEAENLKKYFNAGHSDVADNGTLFLGILKNWKEESDRKIMQSQIVSFYFKLFKNFKDDQSIQKSVETIKEDMNVKFFNSNKKKRDDFEKLTNYSVTDLNVQRKAIHELIQVMAELSPAAKTGKRKRSQMLFRG
B1: the “stressor effect on mucosal to serosal FITC-LPS flux” value with T84 cells [6] (p < 0.0005) is on record as “increased mucosal to serosal FITC-LPS flux”. For the same molecule, the “stressor effect on occludin/actin ratio” value in the assay with T84 cells [7] (T84 cells, IFN-γ 100 ng/ml, p < 0.0005) is “decreased the occludin/actin ratio”. Moreover, in the assay with T84 cells [8] (IFN-γ 100 ng/ml, p < 0.0005), the “stressor effect on mitochondrial membrane potential” value is reported as “decreased the mitochondrial membrane potential”. Also, in the assay with T84 cells [1], the “stressor effect on TER” value is listed as “significantly reduced TER”.
